The text below walks through data of ChEMBL document CHEMBL1649194, “Pharmacokinetics of intracameral voriconazole injection” (Antimicrob Agents Chemother, 2009).

Series [1] can be described thus: Half life in New Zealand White rabbit eye administered as intracameral injection. Conditions: topical or ocular. The format is ADME, tissue-based, Oryctolagus cuniculus.
Series [2] in a line: Drug level in New Zealand White rabbit eye aqueous humor at 25 ug/25 ul administered as intracameral injection measured after 15 mins. The series is classed as ADME, tissue-based, Oryctolagus cuniculus. The settings on record: topical or ocular, read-out: Drug uptake.
The nature of series [3]: Drug level in New Zealand White rabbit eye aqueous humor at 25 ug/25 ul administered as intracameral injection measured after 30 mins. Conditions: topical or ocular, read-out: Drug uptake. The series is classed as ADME, tissue-based, Oryctolagus cuniculus.
Series [4] can be described thus: Drug level in New Zealand White rabbit eye aqueous humor at 25 ug/25 ul administered as intracameral injection measured after 45 mins. The series is classed as ADME, tissue-based, Oryctolagus cuniculus. The settings on record: topical or ocular, read-out: Drug uptake.
Series [5] is described as follows: Drug level in New Zealand White rabbit eye aqueous humor at 25 ug/25 ul administered as intracameral injection measured after 60 mins. The format is ADME, tissue-based, Oryctolagus cuniculus. The settings on record: topical or ocular, read-out: Drug uptake.
The nature of series [6]: Drug level in New Zealand White rabbit eye aqueous humor at 25 ug/25 ul administered as intracameral injection measured after 90 mins. The format is ADME, tissue-based, Oryctolagus cuniculus. The settings on record: topical or ocular, read-out: Drug uptake.
Series [7] can be described thus: Drug level in New Zealand White rabbit eye aqueous humor at 25 ug/25 ul administered as intracameral injection measured after 120 mins. The format is ADME, tissue-based, Oryctolagus cuniculus. Conditions: topical or ocular, read-out: Drug uptake.
A short description of series [8]: Drug level in New Zealand White rabbit eye aqueous humor at 25 ug/25 ul administered as intracameral injection measured after 150 mins. The format is ADME, tissue-based, Oryctolagus cuniculus. The settings on record: topical or ocular, read-out: Drug uptake.
Series [9] in a line: Drug level in New Zealand White rabbit eye aqueous humor at 25 ug/25 ul administered as intracameral injection measured after 180 mins. The series is classed as ADME, tissue-based, Oryctolagus cuniculus. The settings on record: topical or ocular, read-out: Drug uptake.
Series [10] is described as follows: Half life in human eye administered as intracameral injection. The format is ADME, tissue-based.
Series [11] is described as follows: Half life in human serum. The format is ADME, cell-free.
Series [12] is described as follows: Half life in rabbit serum. The series is classed as ADME, cell-free, Oryctolagus cuniculus.
Series [13] can be described thus: Half life in New Zealand White rabbit eye aqueous humor at 25 ug/25 ul administered as intracameral injection. Conditions: topical or ocular. The format is ADME, tissue-based, Oryctolagus cuniculus, Aqueous humor of eyeball.

On to `NCC[C@H](O)C(=O)N[C@@H]1C[C@H](N)[C@@H](O[C@H]2O[C@H](CN)[C@@H](O)[C@H](O)[C@H]2O)[C@H](O)[C@H]1O[C@H]1O[C@H](CO)[C@@H](O)[C@H](N)[C@H]1O` [AMIKACIN], for which the half-life (usually the time needed for the level to fall by half in the phase considered) in series [1] is 0.58 h.
With `C[C@@H](c1ncncc1F)[C@](O)(Cn1cncn1)c1ccc(F)cc1F` [VORICONAZOLE], the concentration at 0.25 h in series [2] worked out at 25400 ng/mL. For the same compound, in series [3], the concentration at 0.5 h stood at 13500 ng/mL. For the same compound, the concentration at 0.75 h in series [4] came to 7730 ng/mL. Also, in [5], the concentration at 1 h came to 5100 ng/mL. In addition, the concentration at 1.5 h in series [6] was found to be 2670 ng/mL. For the same compound, the concentration at 2 h in [7] stood at 1400 ng/mL. Besides, the concentration at 2.5 h in series [8] was determined as 390 ng/mL. The concentration at 3 h in [9] is 150 ng/mL. Moreover, the half-life in [10] (eye, topical or ocular) is 3.27 h; in [11], 6.5 h; in [12] it was 2.5 h; in series [13], 0.367 h.
Regarding GENTAMICIN, the t1/2 in series [10] (topical_or_ocular) was found to be 0.85 h.
